Source: article PMC9774648, “Synthesis, Physicochemical Properties and Molecular Docking of New Benzothiazole Derivatives as Antimicrobial Agents Targeting DHPS Enzyme” (Antibiotics, 2022)
Values after ≈ are worked out from the molar mass of the structure shown. Read-outs that look alike come from different tables or passages of the source.

How the values were obtained:
S. aureus (ATCC: 6538) = experiment: Agar well diffusion, inhibition zone, S. aureus; assay type: cell-based; settings: for zone of inhibition at 15000 µg/mL: Staphylococcus aureus, read-out: Diameter of the Inhibition Zone, S. aureus
S. mutans (ATCC: 25175) = experiment: Agar well diffusion, inhibition zone, S. mutans; assay type: cell-based; settings: for zone of inhibition at 15000 µg/mL: Streptococcus mutans, read-out: Diameter of the Inhibition Zone, S. mutans
S. aureus = experiment: MIC, twofold serial dilution, S. aureus; assay type: cell-based; settings: Staphylococcus aureus; twofold serial dilution in broth, 37 °C 16–20 h; read-out: The Minimum Inhibitory Concentration (MIC), S. aureus
Method: The new synthetic compounds, 6a–c, 12a–c, 14a–c, 16a–c and 19a–e, were tested in vitro to evaluate antibacterial activities against Gram-negative and Gram-positive bacteria, such as E. coli (ATCC: 3008), K. pneumonia (ATCC: 4415) and P. aeruginosa (ATCC: 27853), as an example for Gram-negative bacteria, as well as S. aureus (ATCC: 6538) and S. mutans (ATCC: 25175) for Gram-positive bacteria. The antifungal activities were evaluated also for the novel compounds in vitro against C. albicans (ATCC: 10231). The antibacterial and antifungal activities were determined by the agar-diffusion method using gentamicin, ampicillin and sulfadiazine, example of sulfa drug, as standard drugs against Gram-negative and Gram-positive, while nystatin was used as standard drug against the fungal strain. Table 1 summarizes the results for all tested compounds as the average diameter of inhibition zones of microbial growth around the discs in mm ± SD.
For each strain, three to five isolated colonies were selected from the fresh agar plate and were transferred into a tube containing 3–4 mL of sterile broth medium. The bacterial suspension was mixed well and incubated at 35–37 °C for 2–6 h. The turbidity of the bacterial suspension should be equal to or greater than the turbidity of a McFarland Standard 0.5. After that, 1 mg of the tested compound (antimicrobial agent) was dissolved in 1 mL DMSO and two-fold serial dilution was done using broth medium. A fixed volume of the prepared bacterial inoculum was added to each tube and incubated for at 37 °C 16–20 h. The MIC is defined as the lowest concentration of the antimicrobial agent that inhibits visible growth of the tested isolate as observed with the unaided eye.

S. mutans = experiment: MIC, twofold serial dilution, S. mutans; assay type: cell-based; settings: Streptococcus mutans, read-out: The Minimum Inhibitory Concentration (MIC), S. mutans
[1] = tested on: K. pneumonia (ATCC: 4415); experiment: Agar well diffusion, inhibition zone, K. pneumonia; assay type: cell-based; settings: agar well diffusion, 15 mg/mL, 100 μL per well, 37 °C 24 h, mean ± SD, triplicate
[2] = tested on: P. aeruginosa (ATCC: 27853); experiment: Agar well diffusion, inhibition zone, P. aeruginosa; assay type: cell-based; settings: agar well diffusion, 15 mg/mL, 100 μL per well, 37 °C 24 h, mean ± SD, triplicate
E. coli (ATCC: 3008) = experiment: Agar well diffusion, inhibition zone, E. coli; assay type: cell-based; settings: agar well diffusion, 15 mg/mL, 100 μL per well, 37 °C 24 h, mean ± SD, triplicate
[3] = molecular target: DHPS enzyme (dihydropteroate synthase) (Bacillus anthracis, UniProt Q81VW8); experiment: biochemical; settings: for inhibition at 0.1 µg/mL: 0.1 μg/mL; for inhibition at 0.1 µg/mL / inhibition at 1 µg/mL / inhibition at 10 µg/mL / inhibition at 100 µg/mL: read-out: Inhibition % against DHPS enzyme; for inhibition at 1 µg/mL: 1 μg/mL; for inhibition at 10 µg/mL: 10 μg/mL; for inhibition at 100 µg/mL: 100 μg/mL
Chain of DHPS enzyme (dihydropteroate synthase) (Q81VW8 1-280): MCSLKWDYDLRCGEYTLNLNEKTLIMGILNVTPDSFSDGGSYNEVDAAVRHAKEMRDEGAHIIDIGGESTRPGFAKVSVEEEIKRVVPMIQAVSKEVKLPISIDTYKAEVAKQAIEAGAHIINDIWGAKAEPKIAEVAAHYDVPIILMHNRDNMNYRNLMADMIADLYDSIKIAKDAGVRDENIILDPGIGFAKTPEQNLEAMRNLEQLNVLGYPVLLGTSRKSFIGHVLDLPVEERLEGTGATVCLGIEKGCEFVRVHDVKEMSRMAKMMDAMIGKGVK

[4] = tested on: C. albicans (ATCC: 10231); experiment: Agar well diffusion, inhibition zone, C. albicans; assay type: cell-based; settings: 15 mg/mL, 100 μL per well, mean ± SD, triplicate; for zone of inhibition at 15000 µg/mL: Candida albicans, read-out: Diameter of the Inhibition Zone, C. albicans
[5] = agar well diffusion, 15 mg/mL, 100 μL per well, 37 °C 24 h, mean ± SD, triplicate
[6] = twofold serial dilution in broth, 37 °C 16–20 h

SMILES	MIC (S. aureus)	zone of inhibition at 15000 µg/mL (S. aureus (ATCC: 6538); [5])	zone of inhibition at 15000 µg/mL (S. mutans (ATCC: 25175); [5])	Diameter of the Inhibition Zone, K. pneumonia [1]	Diameter of the Inhibition Zone, P. aeruginosa [2]	Diameter of the Inhibition Zone, E. coli (E. coli (ATCC: 3008))	melting point	Diameter of the Inhibition Zone, S. mutans (S. mutans (ATCC: 25175); [5])	also measured
CC1(C)S[C@@H]2[C@H](NC(=O)[C@H](N)c3ccccc3)C(=O)N2[C@H]1C(=O)O [Ampicillin, reference compound]	179 µM (≈ 62.5 µg/mL)								zone of inhibition at 15000 µg/mL (S. aureus (ATCC: 6538); 24 h): 22 ± 0.1 mm; zone of inhibition at 15000 µg/mL (S. mutans (ATCC: 25175); 24 h): 30 ± 0.5 mm; MIC (S. mutans): 179 µM (≈ 62.5 µg/mL)
Nc1c(C(=O)Nc2ccccc2)cc(-c2nc3ccccc3s2)c(=O)n1NS(=O)(=O)c1ccc(Cl)cc1 [Compound 6a, 2-Amino-5-(benzo[d]thiazole-2-yl)-1-(4-chlorophenylsulfonamido)-6-oxo-N-phenyl-1,6-dihydropyridine-3–carboxamide]	906 µM (≈ 500 µg/mL)	19.6 ± 0.6 mm	12.3 ± 0.6 mm	^a -	-	-			
Nc1c(C(=O)Nc2ccc(Cl)cc2)cc(-c2nc3ccccc3s2)c(=O)n1NS(=O)(=O)c1ccc(Cl)cc1 [Compound 6b, 2-Amino-5-(benzo[d]thiazole-2-yl)-N-(4-chlorophenyl)-1-(4-chlorophenylsulfonamido)-6-oxo-1,6-dihydropyridine-3–carboxamide]	1700 µM (≈ 1000 µg/mL)	18.3 ± 0.6 mm	15.3 ± 0.5 mm	-	-	-	334 to 336 °C		MIC (S. mutans; [6]): 1700 µM (≈ 1000 µg/mL)
Cc1ccc(NC(=O)c2cc(-c3nc4ccccc4s3)c(=O)n(NS(=O)(=O)c3ccc(Cl)cc3)c2N)cc1 [Compound 6c, 2-Amino-5-(benzo[d]thiazole-2-yl)-1-(4-chlorophenylsulfonamido)-6-oxo-N-(p-tolyl)-1,6-dihydropyridine-3–carboxamide]		10.6 ± 0.5 mm	10.6 ± 0.5 mm	-	-	-	302 to 305 °C		
O=c1[nH]c(-c2ccc(Cl)cc2)ccc1-c1nc2ccccc2s1 [Compound 12a, 3-(Benzo[d]thiazol-2-yl)-6-(4-chlorophenyl)pyridin-2(1H)-one]	369 µM (≈ 125 µg/mL)	19.6 ± 0.6 mm		-	-	-		-	IC50 [3]: 83.6 µM; inhibition at 0.1 µg/mL [3]: 11%; inhibition at 1 µg/mL [3]: 27%; inhibition at 10 µg/mL [3]: 44%; inhibition at 100 µg/mL [3]: 58%
O=c1[nH]c(-c2ccc(Br)cc2)ccc1-c1nc2ccccc2s1 [Compound 12b, 3-(Benzo[d]thiazol-2-yl)-6-(4-bromophenyl)pyridin-2(1H)-one]	2610 µM (≈ 1000 µg/mL)	17.6 ± 0.6 mm		-	-	-	345 to 346 °C	-	
COc1ccc(-c2ccc(-c3nc4ccccc4s3)c(=O)[nH]2)cc1 [Compound 12c, 3-(Benzo[d]thiazol-2-yl)-6-(4-methoxyphenyl)pyridin-2(1H)-one]		15.6 ± 0.5 mm	11.3 ± 0.5 mm	-	-	-			
Cc1ccc(S(=O)(=O)NNC(=O)/C(=C/c2ccc(F)cc2)c2nc3ccccc3s2)cc1 [Compound 14a]	1070 µM (≈ 500 µg/mL)	19.3 ± 0.6 mm	18.3 ± 0.6 mm	-	-	-	201 to 202 °C		zone of inhibition at 15000 µg/mL [4]: 20.6 ± 0.6 mm; MIC (S. mutans; [6]): 2140 µM (≈ 1000 µg/mL)
Cc1ccc(/C=C(/C(=O)NNS(=O)(=O)c2ccc(C)cc2)c2nc3ccccc3s2)cc1 [Compound 14c, N-(2-(Benzo[d]thiazole-2-yl)-3-(p-tolyl)acryloyl)-4-methylbenzene-sulfonohydrazide]	135 µM (≈ 62.6 µg/mL)	30.3 ± 0.6 mm	20.3 ± 0.6 mm	-	-	-	195 to 196.5 °C		zone of inhibition at 15000 µg/mL [4]: 11.3 ± 0.5 mm; MIC (S. mutans; [6]): 539 µM (≈ 250 µg/mL); IC50 [3]: 56.4 µM; inhibition at 0.1 µg/mL [3]: 8.6%; inhibition at 1 µg/mL [3]: 21%; inhibition at 10 µg/mL [3]: 46%; inhibition at 100 µg/mL [3]: 59%
O=C(NNS(=O)(=O)c1ccccc1)/C(=N/Nc1ccccc1)c1nc2ccccc2s1 [Compound 19a, N′-(2-(Benzo[d]thiazol-2-yl)-2-(2-phenylhydrazono)acetyl)benzenesulfono-hydrazide]				-	-	-	246 to 248.6 °C	-	Diameter of the Inhibition Zone, S. aureus (S. aureus (ATCC: 6538); [5]): -; zone of inhibition at 15000 µg/mL [4]: 10.3 ± 0.5 mm
O=C(NNS(=O)(=O)c1ccccc1)C(=NNc1ccc(Cl)cc1)c1nc2ccccc2s1 [Compound 19b, N′-(2-(Benzo[d]thiazol-2-yl)-2-(2-(4-chlorophenyl)hydrazono)acetyl)benzene-sulfonohydrazide]		11.6 ± 0.5 mm		-	-	-	265 to 267 °C	-	
Cc1ccc(N/N=C(/C(=O)NNS(=O)(=O)c2ccc(C)cc2)c2nc3ccccc3s2)cc1 [Compound 19e, N′-(2-(Benzo[d]thiazol-2-yl)-2-(2-(4-methylphenyl)hydrazono)acetyl)-4-methylbenzenesulfono-hydrazide]				-	-	-	285 to 286 °C	-	Diameter of the Inhibition Zone, S. aureus (S. aureus (ATCC: 6538); [5]): -
C[C@@H]1[C@H](O)[C@@H](C)/C=C/C=C/CC/C=C/C=C/C=C/C=C/C(O[C@H]2O[C@H](C)[C@@H](O)[C@H](N)[C@@H]2O)CC2O[C@](O)(CC(O)C(O)CCC(O)CC(O)CC(O)CC(=O)O[C@H]1C)CC(O)C2C(=O)O (stereo partly drawn) [Nystatin, reference compound]									Diameter of the Inhibition Zone, C. albicans [4]: 21.0 ± 0.5 mm
